Results published in ChEMBL document CHEMBL5518181, “Studies of antibacterial activity (in vitro and in vivo) and mode of action for des-acyl tridecaptins (DATs)” (Eur J Med Chem, 2024).
In brackets after ≈: the same amount, converted by molar mass. Activity calls are given as the source filed them. No cut-off for these calls is given here.

Key:
[1] = system: Escherichia coli; assay: Antibacterial activity against wild-type Escherichia coli ATCC 25922 assessed as inhibition of bacterial growth incubated for 18 hrs; format: functional; details: for MIC: read-out: MIC100
[2] = system: Klebsiella pneumoniae; assay: Antibacterial activity against wild-type Klebsiella pneumoniae ATCC 13883 assessed as inhibition of bacterial growth incubated for 18 hrs; format: functional; details: for MIC: read-out: MIC100
[3] = system: Citrobacter freundii; assay: Antibacterial activity against Citrobacter freundii ATCC 8090 assessed as inhibition of bacterial growth incubated for 18 hrs; format: functional
[4] = system: Klebsiella pneumoniae; assay: Antibacterial activity against Klebsiella pneumoniae ATCC BAA-2470 expressing NDM-1 assessed as inhibition of bacterial growth incubated for 18 hrs; format: functional
[5] = system: Klebsiella pneumoniae; assay: Antibacterial activity against Klebsiella pneumoniae ATCC 43816 assessed as inhibition of bacterial growth incubated for 18 hrs; format: functional
[6] = system: Klebsiella aerogenes; assay: Antibacterial activity against Enterobacter aerogenes ATCC 13048 assessed as inhibition of bacterial growth incubated for 18 hrs; format: functional
[7] = system: Enterobacter cloacae; assay: Antibacterial activity against Enterobacter cloacae ATCC 23355 assessed as inhibition of bacterial growth incubated for 18 hrs; format: functional
[8] = system: Escherichia coli; assay: Antibacterial activity against Escherichia coli ATCC BAA-2469 expressing NDM-1 assessed as inhibition of bacterial growth incubated for 18 hrs; format: functional
[9] = system: Escherichia coli; assay: Antibacterial activity against colistin resistant Escherichia coli NCTC 13846 harboring mcr-1 gene assessed as inhibition of bacterial growth incubated for 18 hrs; format: functional
[10] = system: Escherichia coli; assay: Antibacterial activity against Escherichia coli Swiss 7 harboring mcr-1 gene assessed as inhibition of bacterial growth incubated for 18 hrs; format: functional
[11] = system: Escherichia coli; assay: Antibacterial activity against Escherichia coli Swiss 9 harboring mcr-1 gene assessed as inhibition of bacterial growth incubated for 18 hrs; format: functional
[12] = system: Morganella morganii; assay: Antibacterial activity against Morganella morganii ATCC 25830 assessed as inhibition of bacterial growth incubated for 18 hrs; format: functional
[13] = system: Proteus mirabilis; assay: Antibacterial activity against Proteus mirabilis ATCC 25933 assessed as inhibition of bacterial growth incubated for 18 hrs; format: functional
[14] = system: Providencia stuartii; assay: Antibacterial activity against Providencia stuartii ATCC 25826 assessed as inhibition of bacterial growth incubated for 18 hrs; format: functional
[15] = system: Salmonella typhimurium; assay: Antibacterial activity against Salmonella typhimurium ATCC 13311 assessed as inhibition of bacterial growth incubated for 18 hrs; format: functional
[16] = system: Serratia marcescens; assay: Antibacterial activity against intrinsically colistin resistant Serratia marcescens ATCC 13880 assessed as inhibition of bacterial growth incubated for 18 hrs; format: functional
[17] = system: Pseudomonas aeruginosa; assay: Antibacterial activity against efflux-deficient Pseudomonas aeruginosa PAO750 assessed as inhibition of bacterial growth incubated for 18 hrs; format: functional
[18] = system: Staphylococcus aureus; assay: Antibacterial activity against wild type Staphylococcus aureus USA300 assessed as inhibition of bacterial growth incubated for 18 hrs; format: functional
[19] = system: Escherichia coli; assay: Antibacterial activity against Escherichia coli panel (100 strains) assessed as inhibition of bacterial growth; format: functional
[20] = system: Klebsiella pneumoniae; assay: Antibacterial activity against Klebsiella pneumoniae panel (100 strains) assessed as inhibition of bacterial growth; format: functional
[21] = Hemolytic activity in human red blood cells at 400 ug/ml incubated for 45 mins by spectrophotometric analysis relative to control; format: toxicity, cell-based, Erythrocyte; details: red blood cells (erythrocytes), at 400 µg/mL, read-out: Activity
[22] = Drug uptake in Escherichia coli ATCC 25922 at 10 uM incubated for 10 mins by LC-MS/MS analysis; format: ADME
[23] = Drug localization in cytoplasm of Escherichia coli ATCC 25922 at 10 uM incubated for 10 mins by LC-MS/MS analysis; format: ADME, subcellular
[24] = Cytotoxicity against human HepG2 cells incubated for 40 hrs by celltiter-glo luminescent cell viability assay; format: toxicity, cell-based
[25] = Binding affinity to gram negative bacterial lipid II assessed as dissociation constant by ITC analysis; set-up: species or system Bacteria
[26] = system: Lipopolysaccharide (LPS); assay: Binding affinity to Escherichia coli O55:B5 LPS assessed as dissociation constant by ITC analysis; format: subcellular
[27] = system: Escherichia coli; assay: Antibacterial activity against wild-type Escherichia coli ATCC 25922 assessed as inhibition of bacterial growth by measuring fold increase in MIC incubated for 18 hrs in presence of 50% heat inactivated human serum relative to control; format: functional
[28] = system: Escherichia coli; assay: Antibacterial activity against wild-type Escherichia coli ATCC 25922 assessed as inhibition of bacterial growth incubated for 18 hrs in presence of 50% heat inactivated human serum; format: functional; details: read-out: MIC100
[29] = system: Escherichia coli; assay: Antibacterial activity against Escherichia coli ATCC 25922 harboring hldE knock-out assessed as inhibition of bacterial growth incubated for 18 hrs; format: functional; details: read-out: MIC100
[30] = system: Escherichia coli; assay: Antibacterial activity against Escherichia coli ATCC 25922 harboring tolC knock-out assessed as inhibition of bacterial growth incubated for 18 hrs; format: functional; details: read-out: MIC100
[31] = system: Klebsiella pneumoniae; assay: Antibacterial activity against wild-type Klebsiella pneumoniae ATCC 13883 assessed as inhibition of bacterial growth incubated for 18 hrs in presence of 50% heat inactivated human serum; format: functional; details: read-out: MIC100
[32] = system: Acinetobacter baumannii; assay: Antibacterial activity against wild-type Acinetobacter baumannii ATCC 19606 assessed as inhibition of bacterial growth incubated for 20 hrs; format: functional; details: read-out: MIC100
[33] = system: Pseudomonas aeruginosa; assay: Antibacterial activity against wild-type Pseudomonas aeruginosa PAO1 assessed as inhibition of bacterial growth incubated for 24 hrs; format: functional; details: read-out: MIC100
[34] = system: Staphylococcus aureus; assay: Antibacterial activity against […] assessed as inhibition of bacterial growth incubated for 18 hrs; format: functional; details: ATCC 29213, read-out: MIC100
[35] = Hydrophobicity of compound assessed as %MeCN at peak elution by RP-HPLC analysis; format: physicochemical
[36] = system: Bacteria; assay: Binding affinity to gram negative bacterial lipid II at 250 uM by ITC analysis

COLISTIN gave an MIC100 [1] of 0.5 µg/mL, an MIC100 [2] of 2 µg/mL and an MIC100 [3] of 2 µg/mL. For the same molecule, the MIC100 [4] was 4 µg/mL, the MIC100 [5] was 1 µg/mL and the MIC100 [6] was 2 µg/mL. For the same molecule, the MIC100 [7] was 2 µg/mL, the MIC100 [8] was 2 µg/mL and the MIC100 [9] was 8 µg/mL. For the same molecule, the MIC100 [10] was 8 µg/mL, the MIC100 [11] was 8 µg/mL and the MIC100 [12] was greater than 32 µg/mL. It also gave an MIC100 [13] greater than 32 µg/mL, an MIC100 [14] greater than 32 µg/mL and an MIC100 ([15]; Salmonella enterica subsp. enterica serovar Typhimurium) of 2 µg/mL. It also gave an MIC100 [16] greater than 32 µg/mL, an MIC100 [17] of 2 µg/mL and an MIC100 [18] greater than 32 µg/mL. It also gave an MIC50 [19] of less than 0.125 µg/mL, an MIC90 [19] of 4 µg/mL and an MIC50 [20] of 0.5 µg/mL. For the same molecule, the MIC90 [20] was greater than 16 µg/mL.

CC[C@H](C)[C@@H](NC(=O)[C@@H](NC(=O)[C@H](CCC(=O)O)NC(=O)[C@H](Cc1ccccc1)NC(=O)[C@@H](CCN)NC(=O)[C@H](CCN)NC(=O)[C@H](CO)NC(=O)[C@@H](Cc1c[nH]c2ccccc12)NC(=O)[C@@H](CO)NC(=O)CNC(=O)[C@@H](CCN)NC(=O)[C@H](N)C(C)C)C(C)(C)C)C(=O)N[C@@H](C)C(=O)O showed an MIC [1] of 16 µg/mL (≈ 11.4 µM), an MIC [2] of 4 µg/mL (≈ 2.84 µM) and a hemolysis at 0.75 h, 400 ug/ml [21] of 86.3%. The Drug uptake [22] was “Active” and the Drug uptake [23] was “Active”.

Molecule O=C(O)c1cn(C2CC2)c2cc(N3CCNCC3)c(F)cc2c1=O [CIPROFLOXACIN] has an MIC [2] of 0.032 µg/mL (≈ 0.0966 µM), an IC50 at 40 h [24] greater than 170 µg/mL and an MIC ([3]; read-out: MIC100) of 0.004 µg/mL (≈ 0.0121 µM). The MIC ([4]; read-out: MIC100) was greater than 1 µg/mL, the MIC ([5]; read-out: MIC100) was 0.003 µg/mL (≈ 0.00905 µM) and the MIC ([6]; read-out: MIC100) was 0.008 µg/mL (≈ 0.0241 µM). The MIC ([8]; read-out: MIC100) was greater than 1 µg/mL, the MIC ([9]; read-out: MIC100) was greater than 1 µg/mL and the MIC ([10]; read-out: MIC100) was greater than 1 µg/mL. The MIC ([11]; read-out: MIC100) was greater than 1 µg/mL, the MIC ([12]; read-out: MIC100) was 0.002 µg/mL (≈ 0.00604 µM) and the MIC ([13]; read-out: MIC100) was 0.016 µg/mL (≈ 0.0483 µM). It also gave an MIC ([14]; read-out: MIC100) of 0.016 µg/mL (≈ 0.0483 µM), an MIC ([15]; Salmonella enterica, read-out: MIC100) of 0.004 µg/mL (≈ 0.0121 µM) and an MIC ([16]; read-out: MIC100) of 0.032 µg/mL (≈ 0.0966 µM). The MIC ([17]; read-out: MIC100) was 0.004 µg/mL (≈ 0.0121 µM) and the MIC ([18]; read-out: MIC100) was 1 µg/mL (≈ 3.02 µM).

CC[C@H](C)[C@@H](NC(=O)[C@@H](NC(=O)[C@H](CCC(=O)O)NC(=O)[C@H](Cc1c[nH]c2ccccc12)NC(=O)[C@@H](CCN)NC(=O)[C@H](CCN)NC(=O)[C@H](CO)NC(=O)[C@@H](Cc1c[nH]c2ccccc12)NC(=O)[C@@H](CO)NC(=O)CNC(=O)[C@@H](CCN)NC(=O)[C@H](NC(=O)[C@H](C)N)C(C)C)C(C)C)C(=O)N[C@@H](C)C(=O)O gave an MIC [1] of 1 µg/mL (≈ 0.665 µM), an MIC [2] of 1 µg/mL (≈ 0.665 µM) and a hemolysis at 0.75 h, 400 ug/ml [21] of 41.7%. For the same molecule, the IC50 at 40 h [24] was 151 µg/mL (≈ 100 µM), the Kd [25] was 5.2 µM and the Kd [26] was 14.8 µM.

Work on CC[C@H](C)[C@H](N)C(=O)N[C@@H](C(=O)N[C@H](CCN)C(=O)NCC(=O)N[C@H](CO)C(=O)N[C@H](Cc1c[nH]c2ccccc12)C(=O)N[C@@H](CO)C(=O)N[C@@H](CCN)C(=O)N[C@H](CCN)C(=O)N[C@@H](Cc1ccccc1)C(=O)N[C@@H](CCC(=O)O)C(=O)N[C@H](C(=O)N[C@@H](C(=O)N[C@@H](C)C(=O)O)[C@@H](C)CC)C(C)C)C(C)C yielded an MIC [1] of 1 µg/mL (≈ 0.663 µM), an MIC [2] of 1 µg/mL (≈ 0.663 µM) and a hemolysis at 0.75 h, 400 ug/ml [21] of 56.9%. For the same molecule, the IC50 at 40 h [24] was 20 µg/mL (≈ 13.3 µM), the Kd [25] was 4.8 µM and the Kd [26] was 0.088 µM.

CC[C@H](C)[C@@H](NC(=O)[C@@H](NC(=O)[C@H](CCC(=O)O)NC(=O)[C@H](Cc1ccccc1)NC(=O)[C@@H](CCN)NC(=O)[C@H](CCN)NC(=O)[C@H](CO)NC(=O)[C@@H](Cc1c[nH]c2ccccc12)NC(=O)[C@@H](CO)NC(=O)CNC(=O)[C@@H](CCN)NC(=O)[C@H](N)C(C)C)C(C)(C)C)C(=O)N[C@@H](C)C(N)=O showed an MIC [1] of 4 µg/mL (≈ 2.84 µM), an MIC [2] of 2 µg/mL (≈ 1.42 µM) and a hemolysis at 0.75 h, 400 ug/ml [21] of 2.6%. For the same molecule, the IC50 at 40 h [24] was 93 µg/mL (≈ 66.1 µM), the “fold change (FC)” value [27] was 2 and the MIC [28] was 2 µg/mL. For the same molecule, the MIC [29] was 0.125 µg/mL (≈ 0.0888 µM), the MIC [30] was 0.25 µg/mL (≈ 0.178 µM) and the MIC [31] was 4 µg/mL. For the same molecule, the MIC [32] was greater than 64 µg/mL, the MIC [33] was 16 µg/mL (≈ 11.4 µM) and the MIC [34] was greater than 64 µg/mL. The “MeCN percentage at peak elution” value [35] was 41%, the Kd [26] was 16.7 µM and the Activity [36] was “inactive”.
